Laboratory results from patent US7205162B1, “Artificial antibodies, method of producing the same and use thereof” (priority 1995, dated 2007).

How the values were obtained:
[1] = system: natural antibodies (Ab's) against theophylline; conditions: data from ref 22; cited from earlier work
[2] = Molecularly Imprinted Sorbent Assay (MIA), competitive binding of 3H-theophylline to anti-theophylline polymer; conditions: for Cross-reaction (%) ArtAb, Theophylline antibodies: molar ratio of theophylline to ligand giving 50% inhibition of 3H-theophylline binding to polymer, ligands added to drug free serum
[3] = Molecularly Imprinted Sorbent Assay (MIA), competitive binding of 3H-diazepam to anti-diazepam polymer; conditions: molar ratio of diazepam to ligand giving 50% inhibition of 3H-diazepam binding to polymer; ligands added to drug free serum
[4] = system: natural antibodies (Ab's) against diazepam; conditions: data from ref 24; cited from earlier work
[5] = Scatchard plot analysis with radio-labelled ligand, anti-diazepam polymer
From the text: (§1) The equilibrium dissociation constants (KD) for binding of the drugs to the corresponding polymers were estimated by Scatchard plot analysis using radio-labelled ligands.

[6] = Scatchard plot analysis with radio-labelled ligand, anti-theophylline polymer; format: binding; conditions: LIGAND programme
From the text: as §1

| SMILES | Cross-reaction (%) Ab*, Theophylline antibodies [1] | Cross-reaction (%) ArtAb, Theophylline antibodies [2] | Cross-reaction (%) ArtAb, Diazepam antibodies [3] | Cross-reaction (%) Ab**, Diazepam antibodies [4] | other results |
| --- | --- | --- | --- | --- | --- |
| Cn1c(=O)c2[nH]c(=O)[nH]c2n(C)c1=O [1,3-Dimethyluric acid] | <1% | <1% |  |  |  |
| Cn1c(=O)[nH]c2[nH]c(=O)[nH]c2c1=O [1-Methyluric acid] | <1% | <1% |  |  |  |
| Cn1c(=O)[nH]c(=O)c2[nH]cnc21 [3-Methylxantin, 3-methylxanthine] | 2% | 7% |  |  | cross-reactivity in MIA for theophylline (in words) [2]: some cross-reactivity |
| Cn1c(=O)c2c(ncn2CCO)n(C)c1=O [7-(β-Hydroxyethyl)-1,3-di-methylxanthine] | <1% | <1% |  |  |  |
| Cc1nnc2n1-c1ccc(Cl)cc1C(c1ccccc1)=NC2 [Alprazolam] |  |  | 40% | 44% |  |
| CNC1=Nc2ccc(Cl)cc2C(c2ccccc2)=[N+]([O-])C1 [Chlordiazepoxid] |  |  | 2% | <1% |  |
| O=C1CN=C(c2ccccc2Cl)c2cc([N+](=O)[O-])ccc2N1 [Clonazepam] |  |  | 9% | 5% |  |
| O=C1CN=C(c2ccccc2)c2cc(Cl)ccc2N1 [Demethyldiazepam, Desmethyldiazepam] |  |  | 27% | 32% |  |
| CN1C(=O)CN=C(c2ccccc2)c2cc(Cl)ccc21 [Diazepam] |  |  | 100% | 100% | Kd ([5]; read-out: KD, high affinity binding sites, LIGAND programme): 37.6 nM; Kd ([5]; read-out: KD, low affinity binding sites, LIGAND programme): 73.6 nM |
| O=c1[nH]cnc2nc[nH]c12 [Hypoxanthine] | <1% | <1% |  |  |  |
| O=C1Nc2ccc(Cl)cc2C(c2ccccc2Cl)=NC1O (stereo not shown) [Lorazepam] |  |  | 4% | 1% |  |
| Cn1cnc2c1c(=O)[nH]c(=O)n2C [Theobromine, 3,7-dimetylxanthine] | <1% |  |  |  |  |
| Cn1c(=O)c2[nH]cnc2n(C)c1=O [Theophylline, 1,3-dimethylxanthine] | 100% | 100% |  |  | Kd ([6]; read-out: KD, high affinity binding sites): 346 nM; Kd ([6]; read-out: KD, low affinity binding sites): 65500 nM |
| O=c1[nH]c(=O)c2[nH]c(=O)[nH]c2[nH]1 [Uric acid] | <1% | <1% |  |  |  |
| O=c1[nH]c(=O)c2[nH]cnc2[nH]1 [Xanthine] | <1% | <1% |  |  |  |
| Cn1c(=O)c2[nH]cnc2n(C)c1=O [[^3H]-theophylline] |  |  |  |  | time to binding equilibrium ([2]; 12.5 mg polymer, acetonitrile-acetic acid (99/1), room temperature): 8 h; share of the binding occurred within 3 h ([2]; within 3 h, acetonitrile-acetic acid (99/1), room temperature): 80%; share of the binding occurred within 5 h ([2]; within 5 h, acetonitrile-acetic acid (99/1), room temperature): 90% |
